Results published in paper PMC11481179, “Development and Application of Reversible and Irreversible Covalent Probes for Human and Mouse Cathepsin‐K Activity Detection, Revealing Nuclear Activity” (Advanced Science, 2024).

Assays:
[1] = target: T1, endogenous CTSK in intact U-2 OS cells (Homo sapiens, UniProt P43235); experiment: Labeling of endogenous CTSK in intact cells, fluorescent SDS-PAGE; assay type: cell-based
T1 construct: ability to label endogenous CTSK activity in intact cells; endogenous in cells; host or cells: U-2 OS
T1 sequence (P43235 115-329): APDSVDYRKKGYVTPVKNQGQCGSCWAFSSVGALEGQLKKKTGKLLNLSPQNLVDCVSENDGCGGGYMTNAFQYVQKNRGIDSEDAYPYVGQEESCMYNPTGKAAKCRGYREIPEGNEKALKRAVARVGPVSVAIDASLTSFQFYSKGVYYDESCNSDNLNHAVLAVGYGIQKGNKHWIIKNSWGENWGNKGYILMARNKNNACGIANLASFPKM
Procedure: To test probe selectivity and the ability to label endogenous CTSK activity in intact cells, three cell lines were selected: human osteosarcoma MG‐63 and U‐2 OS, and human glioblastoma U‐87 MG; all cell lines express CTSK along with other lysosomal cathepsins.^[ [44] ^] First, the ABPs were incubated with intact U‐2 OS cells for different durations of time, and the probe selectivity toward CTSK was examined, with a pan cathepsin ABP, GB123, used as a control that labels CTS B, K, L, and S in cells. After cell lysis, the probe‐labeled enzymes were resolved and detected by a fluorescent scan of the SDS‐PAGE. […] Specifically, intact MG‐63 cells required a 5 h incubation (Figure 2b,c), while U‐87 MG cells required a 2 h incubation (Figure 2d).
Figure 2 Labeling of endogenous CTSK in intact cells. a) U2‐OS cells were treated with DMSO or 5 µM of the indicated inhibitors in culture medium, for 2 h, then with indicated ABPs [5 µM] in a culture medium for indicated times, followed by cell lysis, SDS‐PAGE separation, and fluorescent scanning of the gel at 635/670 nm. An immunoblot of CTSK of the same gel is presented below. b) Intact MG63 cells were treated with GD32 5 µM in the culture media for indicated times, cell lysates were analyzed as in a. CTSK immunoblot is presented, pro and mature CTSK are indicated by arrows. c) MG63 cells and d) U87MG cells were treated with DMSO, or 5 µM of indicated inhibitors in culture medium for 2 h, followed by incubation with 5 µM of indicated probes for 5 h (GD32 and GD42) and 2 h (GB123), cell lysates were analyzed by fluorescent SDS PAGE as in a. […] In (c) a CTSK immunoblot of a representative MG63 lane on the right. e) Labeling of active mature CTSK by GD32 in A549 and U2‐0S cells in externally adjusted different pH. Cells were incubated with 5 µM GD32 for 24 h in growth media at indicated pHs, prior to the cell lysis, cell lysates were analysed as in a. CTSK immunoblot below. f) A549 cells were incubated with increasing concentrations of GD30 for 2 h at pH = 5, followed by the incubation with 5 µM GD32 for 24 h prior to the cell lysis, cell lysates were analyzed as in a. g) Intact U‐87 MG cells or U‐87 MG cell lysates were treated with 5 µM GD32 for 2 h, the intact cells were then lysed and all lysates were analyzed as in (a). h) Intact or lysates of U‐87MG were treated with GD32 for 2 h then immunoprecipitation was done with an anti‐CTSK antibody. Input (I), immunoprecipitation (IP), and output (O) were separated by a 14% SDS‐PAGE and scanned for fluorescence. The gel was then blotted and reacted with an anti‐cystatin B antibody below. ODN (Odanacatib), GB111 (GB111‐NH2), mCTSK (mature CTSK). […]
deoxycholate). After adding sample buffer, samples were boiled for 10 minutes, and analyzed […]
lysates were analyzed as described above. […]

CTSL = CTSL (Homo sapiens, UniProt P07711); experiment: In vitro kinetic evaluation of cathepsin inhibition, fluorescent substrate Z-RR-AMC; assay type: biochemical; conditions: for mode of inhibition: CTSL; for Ki: CTSL 5 nM, pH 6, 37 °C
Procedure: used for TLC. Phosphate Buffer Saline (PBS) was purchased from Biological Industries (pH = […]
7.4) and was used as a buffer system in all experiments if not indicated otherwise. […]
Recombinant human CTSB, CTSK, CTSL, and CTSS were supplied by B. Turk (J.
Stefan Institute).[1] […]
In vitro kinetic evaluation of labeling recombinant cathepsins:
Reactions were monitored for 30 min at 37° C in 96-well black flat-bottom microplates […]
(Greiner, Germany) using Tecan INFINITE M1000 pro plate reader (Tecan, Switzerland), […]
substrates Z-RR-AMC (CTSL) or Z-FR-AMC (CTSS, CTSB and CTSK), and excitation and […]
emission wavelengths of 370 and 460 nm, respectively. Cathepsin concentrations in the assay were 0.4 nM (CTSK) or 5 nM (CTSS, CTSB, and CTSL). The buffer was 100 mM Na2HPO4/NaH2PO4, 50 mM NaCl, 5 mM DTT, 0,1% Peg-6000, pH 6. For irreversible inhibitors, reaction data were fitted to the one-phase association formula in GraphPad Prism 9 software: Y=Y0 + (Plateau-Y0)*(1-exp(-K*X)) where in this case Y0 and Y represent fluorescence signal at times 0 and t, respectively, K represent the observed reaction rate kobs and X the inhibitor concentration. Inactivation rates at each inhibitor concentration were obtained by subtracting the inactivation observed in the control sample: kobs – kctrl. The maximal rate of inactivation (kinact) was obtained as the asymptote from equation Y = kinact*X/(Kiapp + X) where X is inhibitor concentration, Y is the observed inactivation rate for each X, and Kiapp is the apparent inhibition constant. Ki values were calculated from IC50 or from Kiapp using formulas Ki = Kiapp / (1 + Km/S) and IC50 = E0/2 + Kiapp, where Km stands for Michalis-Menten constant, S for substrate concentration and E0 for cathepsin concentration.
The highest inhibitor concentrations in the assay were 50 µM. Measurements were performed in several independent duplicates. Average values are presented with standard deviations. […]
µM) were pretreated with different concentrations of probes (GD32, GD36, GD37, or GD42)

CTSL, sequence (P07711 114-333): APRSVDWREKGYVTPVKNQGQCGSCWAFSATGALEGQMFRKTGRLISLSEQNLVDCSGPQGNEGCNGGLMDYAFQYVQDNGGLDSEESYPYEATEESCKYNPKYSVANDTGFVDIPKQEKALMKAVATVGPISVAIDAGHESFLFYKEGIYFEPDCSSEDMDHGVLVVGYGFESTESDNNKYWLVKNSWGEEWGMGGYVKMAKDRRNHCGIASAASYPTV

Row | effect of inhibitor preincubation on GD32-labeled CTSK band ([1]; inhibitor 5 µM, 2 h, then GD32 5 µM) | CTSK specificity of labeling ([1]; probe 5 µM, incubation up to 24 h) | mode of inhibition (CTSL) | Ki (CTSL) [µM] | SMILES
1 | depletion of the CTSK‐specific band |  |  |  | C#CCNC(=O)[C@H](CC(C)C)N[C@@H](c1ccc(-c2ccc(S(=O)(=O)CCNC(=O)OC(C)(C)C)cc2)cc1)C(F)(F)F [GD30]
2 |  | retained its CTSK specificity up to 24 h | Reversible | 20 | C#CCNC(=O)[C@H](CC(C)C)N[C@@H](c1ccc(-c2ccc(S(=O)(=O)CCNC(=O)CCCCC[N+]3=C(/C=C/C=C/C=C4/N(C)c5ccc(S(=O)(=O)O)cc5C4(C)C)C(C)(C)c4cc(S(=O)(=O)O)ccc43)cc2)cc1)C(F)(F)F [GD32]
3 |  |  | Reversible | 1.2 | CC(C)C[C@H](N[C@@H](c1ccc(-c2ccc(S(=O)(=O)CCNC(=O)CCCCC[N+]3=C(/C=C/C=C/C=C4/N(C)c5ccc(S(=O)(=O)O)cc5C4(C)C)C(C)(C)c4cc(S(=O)(=O)O)ccc43)cc2)cc1)C(F)(F)F)C(=O)NC1(C#N)CC1 [GD37]
